Experimental data from PubChem BioAssay AID1918933 (Molecular Pharmacology Branch, DTP, NCI, 2023).
Several values for one entry are separate records, joined by “and”; a condition that tells them apart may be missing. Equal values may be shown once.

Tested on: 186277-243-T-J2-PDC complex spheroid viability
Assay: Anticancer human tumor 186277-243-T-J2-PDC patient-derived colon adenocarcinoma cell line growth inhibition
Settings: for viability, T/C: stronger effect = lower value; for IC50: curve of compound
Description: Multicellular complex tumor spheroid response to LSD1 Inhibitor Iadademstat in combination with a variety of drugs and investigational agents in selected tumor cell lines
The current study was undertaken to assess response to LSD1 inhibitors in combination with standard-of-care drugs and investigational agents in solid tumor complex spheroid models as well as in the K-562 leukemia. Complex spheroids include a stromal component modeled by human endothelial cells (HUVEC) and fibroblasts modeled by human mesenchymal stem cells (MSCs). The concentration ranges selected for each drug and investigational agent were based upon clinically achievable concentrations if the clinical Cmax of the agent was known.
Compounds. The drugs and investigational agents used in this study are listed on Table 1. All of the agents used, including staurosporine (NSC755774) and gemcitabine (NSC613327), were obtained from the Developmental Therapeutics Program, NCI. FDA-approved anticancer drugs are available from the NCI at http://dtp.nci.nih.gov/branches/dscb/oncology_drugset_explanation.html. Drugs and investigational agents were >95% pure by proton nuclear magnetic resonance (NMR) and liquid chromatography/mass spectrometry (LC/MS). Stock solutions were prepared at 400x in DMSO, stored at -70 degrees C, and diluted in fresh medium prior to their use. The final concentration of DMSO in cell culture wells never exceeded 0.25% (v/v). The FDA-approved anticancer drug set is available from the Developmental Therapeutics Program at https://dtp.cancer.gov/organization/dscb/obtaining/available_plates.htm. All drugs and investigational agents were tested over a range starting from a high concentration at or near the clinical Cmax and decreasing in half-log increments. If the clinical Cmax for an agent had not been determined, the highest concentration tested was 10 microM.
Cell Lines. The patient-derived cancer cell (PDC) lines: 292921-168-R-J2-PDC, K24384-001-R-PDC, and 521955-158-R2-J5-PDC pancreatic carcinomas, 556581-035-R-J1 ovarian carcinoma, 324938-238-R-J1-PDC, 855422-203-R-J1-PDC and 883617-216-R-J1-PDC urothelial bladder carcinomas, 743489-274-T-PDC renal cell carcinoma, 138582-R-J1 Merkel cell tumor, K60290-347-R-J1 and K57222-313-R-J1-PDC glioblastomas, 653999-131-R-J2-PDC, LG0703-F948-PDC, and 349418-098-R-PDC non-small cell lung carcinomas, 885512-296-R-J2-PDC, 171881-019-R-J1-PDC breast carcinomas and 186277-243-T-J2-PDC and 233499-124-R-J2-PDC colon carcinomas were obtained from the NCI Patient-Derived Models Repository (PDMR, https://pdmr.cancer.gov). The established cell lines NCI/ADR-RES (RRID:CVCL_14520 and OVCAR-5 (RRID:CVCL_1628) ovarian carcinomas, 786-O (RRID:CVCL_1051) and A498 (RRID:CVCL_A498) renal cell carcinoma, NCI-H211 (ATCC, cat. CRL-5824; RRID:CVCL_1529), NCI-H196 (ATCC, cat. CRL-5823, RRID:CVCL_1509), SW 1271 (ATCC, cat. CRL-2177, RRID:CVCL_1716) and NCI-H1876 (ATCC, cat. CRL-5902, RRID:CVCL_1503) small cell lung carcinomas, MDA-MB-231 (RRID:CVCL_0062) and MDA-MB-468 (RRID:CVCL_0419)breast carcinomas (10-12). Pooled donor human umbilical vein endothelial cells (HUVEC, Lonza, cat. CC-2519) and human mesenchymal stem cells (hMSC, Lonza, cat. PT-2501) were purchased from Lonza (Walkersville, MD).
Cell Culture. All cells were maintained in an incubator at 37 degrees C and 5% CO2 with 95% humidity. The PDC lines were cultured according to standard operating procedures established by the NCI PDMR (https://pdmr.cancer.gov). Briefly all PDCs were thawed and cultured in Matrigel-coated flasks prepared with a working solution of 1X Ham's F-12 nutrient mix, without supplementation (Invitrogen, Waltham, MA, cat. 11765054), 100 U/mL penicillin-streptomycin (Invitrogen, cat. 15140122), and 2.5% Matrigel (Corning Inc., Corning, NY, cat. 354248) for the first three passages. […]
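Also: 7 day exposure to compounds.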
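For viability, T/C in this document: 100% = DMSO vehicle control viability.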

| SMILES | viability, T/C (compound 0.000316 µM) | viability, T/C (compound 0.01 µM) | viability, T/C (compound 0.0316 µM) | viability, T/C (compound 0.1 µM) | IC50 | viability, T/C (compound 0.001 µM) | viability, T/C (compound 0.00316 µM) | viability, T/C (compound 0.316 µM) | viability, T/C (compound 1 µM) | viability, T/C (compound 0.000949 µM) | viability, T/C (compound 0.003 µM) | viability, T/C (compound 0.00949 µM) | viability, T/C (compound 0.03 µM) | viability, T/C (compound 0.0949 µM) | viability, T/C (compound 0.3 µM) | viability, T/C (compound 0.949 µM) | viability, T/C (compound 3 µM) |
| --- | --- | --- | --- | --- | --- | --- | --- | --- | --- | --- | --- | --- | --- | --- | --- | --- | --- |
| CC(C)CC(NC(=O)C(Cc1ccccc1)NC(=O)c1cnccn1)B(O)O (centres undefined) | 96.1% and 94% | 3.46% and 0.11% | 2.69% and 0.11% | 3.82% and 0.17% | 2.74 nM and 0.548 nM | – | – | – | – | – | – | – | – | – | – | – | – |
| CC(C)CC(NC(=O)CNC(=O)c1cc(Cl)ccc1Cl)B1OC(=O)CC(CC(=O)O)(C(=O)O)O1 (centres undefined) | 99.8% and 95.4% | 70.7% and 51.2% | 14.8% and 2.68% | 6.24% and 0.35% | 15.3 nM and 10.2 nM | 99.4% and 103% | 101% and 94.2% | – | – | – | – | – | – | – | – | – | – |
| CC1COCCN1c1cc(-c2ccnn2C)c2ccnc(-c3ccn[nH]3)c2n1 (centres undefined) | – | 30.1% and 14% | 11.1% and 8.92% | 9.14% and 7.83% | 6.15 nM and < 3.16 nM | – | 77.4% and 18.2% | 10.1% and 8.98% | 11.4% and 7.8% | – | – | – | – | – | – | – | – |
| CC[C@@]1(O)C(=O)OCc2c1cc1n(c2=O)Cc2cc3c(CN(C)C)c(O)ccc3nc2-1 | 113% and 102% | 93.4% and 118% | 74.8% and 75.9% | 41.5% and 30.9% | 75.9 nM and 61.3 nM | 101% and 98% | 95.7% and 113% | – | – | – | – | – | – | – | – | – | – |
| CCc1c2c(nc3ccc(O)cc13)-c1cc3c(c(=O)n1C2)COC(=O)[C@]3(O)CC | – | – | – | – | < 0.949 nM | – | – | – | – | 48.5% and 39.8% | 35.5% and 27% | 31.5% and 23.3% | 22% and 4.12% | 2.19% and 0.43% | 0.75% and 0.28% | – | – |
| COc1cc(C2c3cc4c(cc3C(OC3OC5COC(C)OC5C(O)C3O)C3COC(=O)C23)OCO4)cc(OC)c1O (centres undefined) | – | – | – | – | 1700 nM and 618 nM | – | – | – | – | – | – | 101% and 112% | 100% and 124% | 92.8% and 98.9% | 75.2% and 70.9% | 61.2% and 39% | 40.3% and 17.3% |
| COc1cc(Nc2ncc3c(n2)-c2ccc(Cl)cc2C(c2c(F)cccc2OC)=NC3)ccc1C(=O)O | – | 57.4% and 106% | 30.4% and 99.2% | 8.56% and 98.8% | – | – | 101% and 116% | – | – | – | – | – | – | – | – | – | – |
| Cn1ncnc1C1c2n[nH]c(=O)c3cc(F)cc(c23)NC1c1ccc(F)cc1 (centres undefined) | 101% and 106% | 97.5% and 93.7% | 94.1% and 101% | 97.3% and 108% | > 100 nM | 98.5% and 98% | 97.8% and 95.2% | – | – | – | – | – | – | – | – | – | – |
| NS(=O)(=O)OCC1CC(n2ccc3c(NC4CCc5ccccc54)ncnc32)CC1O (centres undefined) | – | – | – | – | 180 nM and 162 nM | – | – | – | – | – | – | 93.9% and 100% | 94.9% and 85.9% | 62.6% and 66.7% | 37.2% and 33% | 20.5% and 9.16% | 7.98% and 4.41% |
| Nc1ccccc1NC(=O)c1ccc(CNC(=O)OCc2cccnc2)cc1 | – | – | – | – | 1310 nM and 628 nM | – | – | – | – | – | – | 99.8% and 104% | 99.2% and 98.5% | 102% and 106% | 88.2% and 103% | 64.4% and 20.6% | 14.5% and 1.27% |
| Nc1ccn(C2OC(CO)C(O)C2(F)F)c(=O)n1 (centres undefined) | – | – | – | – | < 0.949 nM and 2.23 nM | – | – | – | – | 17.2% and 101% | 16.7% and 32.3% | 16.5% and 13% | 16.5% and 11.9% | 17.1% and 12.7% | 14.7% and 14% | – | – |
| Nc1ncn(C2CC(O)C(CO)O2)c(=O)n1 (centres undefined) | – | 102% and 99.4% | 97.3% and 94.3% | 113% and 112% | > 1000 nM | – | 93.4% and 108% | 113% and 133% | 104% and 141% | – | – | – | – | – | – | – | – |
| Nc1ncn(C2CC(O)C(CO)S2)c(=O)n1 (centres undefined) | – | – | – | – | 69.6 nM and 104 nM | – | – | – | – | 109% and 96.1% | 118% and 104% | 99.9% and 109% | 83.4% and 99.1% | 37.5% and 53.4% | 11.7% and 12% | – | – |
| O=C(C=Cc1cccc(S(=O)(=O)Nc2ccccc2)c1)NO | – | – | – | – | 223 nM and 234 nM | – | – | – | – | – | – | 102% and 94.1% | 100% and 96.4% | 84.3% and 80.5% | 36.6% and 22.1% | 15.3% and 3.68% | – |
| O=C(C=Cn1cnc(-c2cc(C(F)(F)F)cc(C(F)(F)F)c2)n1)NNc1cnccn1 | – | 85.8% and 106% | 23.5% and 84.3% | 9.4% and 15.8% | 19.4 nM and 56.4 nM | – | 98.1% and 93.5% | 5.65% and 4.97% | 0.55% and 2.09% | – | – | – | – | – | – | – | – |
